Assay results reported in PubChem BioAssay (NCI).
Several values for one entry are separate records, joined by “and”; a condition that tells them apart may be missing. Identical values can stand only once.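 Cultured in 96-well plates, cells were exposed to test compound for 48 hours across five concentrations. GI50 = concentration required for 50% inhibition of growth. TGI denotes the concentration required for complete inhibition of growth.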

What was measured:
Assay in all cases: NCI tumour cell line growth inhibition, 48 h
P388/ADR leukemia = system: P388/ADR leukemia
DLD-1 colon = system: DLD-1 colon
XF 498 CNS = system: XF 498 CNS
M19-MEL melanoma = system: M19-MEL melanoma
KM20L2 colon = system: KM20L2 colon
NCI-H226 lung = system: NCI-H226 lung
HOP-18 NSCLC = system: HOP-18 NSCLC
TK-10 renal = system: TK-10 renal
DU-145 prostate = system: DU-145 prostate
T-47D breast = system: T-47D breast
MDA-MB-231 breast = system: MDA-MB-231 breast
M14 melanoma = system: M14 melanoma
PC-3 prostate = system: PC-3 prostate
SR leukemia = system: SR leukemia
LXFL 529 NSCLC = system: LXFL 529 NSCLC
786-0 renal = system: 786-0 renal
HS 578T breast = system: HS 578T breast
BT-549 breast = system: BT-549 breast

Structure (SMILES)	TGI (P388/ADR leukemia)	TGI (DLD-1 colon)	TGI (XF 498 CNS)	TGI (M19-MEL melanoma)	TGI (KM20L2 colon)	TGI (NCI-H226 lung)	TGI (HOP-18 NSCLC)	TGI (TK-10 renal)	TGI (DU-145 prostate)	TGI (T-47D breast)	TGI (MDA-MB-231 breast)	TGI (M14 melanoma)	TGI (PC-3 prostate)	TGI (SR leukemia)	TGI (LXFL 529 NSCLC)	GI50 (XF 498 CNS)	GI50 (M19-MEL melanoma)	TGI (786-0 renal)	TGI (HS 578T breast)	TGI (BT-549 breast)
OCC1OC(n2cnc3c2NC=NC[C@H]3O)C(O)C1O (stereo not given in full)	> 450 µM	> 450 µM	> 450 µM	> 450 µM	> 450 µM	> 273 µM	> 450 µM													
CCOC(=O)c1csc(NC(=O)C(C)N2CCCCC2)n1 (stereo not given)								> 100 µM	> 100 µM	> 100 µM	> 100 µM	> 100 µM	> 100 µM							
CCCCN1C=CN2c3nc4cc(C)c(C)cc4n3C(C(=O)OC)=C(C(=O)OC)C12 (stereo not given)		> 100 µM	> 100 µM	> 100 µM	> 100 µM		> 100 µM	> 100 µM				> 100 µM		> 100 µM	> 100 µM					
C=C1C(=O)O[C@H]2[C@H]1[C@@H](OC(=O)C=C(C)C)CC1=C[C@@H](C[C@@]3(C)O[C@@H]23)OC1=O	1120 µM and 1250 µM	11.8 µM	3.79 µM and 4.51 µM	8.29 µM and 16.7 µM		36.2 µM	10.2 µM									2.4 µM	4.37 µM			
C=CCn1c(=O)n(CC=C)c(=O)n(CC=C)c1=O		> 100 µM		> 100 µM	> 100 µM		> 100 µM	> 100 µM				> 100 µM			> 100 µM			> 100 µM		
COc1ccnc2c1C(=O)c1nc3ccccc3c3ccnc-2c13								1.13 µM	0.31 µM	1.34 µM	3.87 µM	0.272 µM	1.81 µM						6.44 µM	1.44 µM
CN(C)C(=O)OCOC(=O)N(C)C	> 100 µM	> 100 µM	> 100 µM	> 100 µM	> 100 µM	> 100 µM	> 100 µM													
COC(=O)c1ccc(/C=C2\N=C(C)OC2=O)cc1		> 100 µM	> 100 µM	> 100 µM	> 100 µM	> 100 µM	> 100 µM	> 100 µM				> 100 µM			> 100 µM					
CCOC(=O)CC1CCN(C(=O)c2ccccc2)C2Cc3c([nH]c4ccccc34)C12C[N+](=O)[O-] (stereo not given)						> 100 µM		> 100 µM	> 100 µM	> 100 µM	> 100 µM	> 100 µM	> 100 µM	> 100 µM					> 100 µM	> 100 µM
COC(=O)C1OC(Oc2cc(O)c3c(=O)cc(-c4ccc(O)cc4)oc3c2)C(O)C(O)C1O (stereo not given)	> 100 µM	> 100 µM	> 100 µM	> 100 µM	> 100 µM	> 100 µM	> 100 µM													
CO[C@H]1[C@@H](O)[C@@H](C)O[C@@H](O[C@H]2CC[C@@]3(C)[C@H](CC[C@@H]4[C@@H]3CC[C@]3(C)[C@@H](C5=CC(=O)OC5)[C@@H](OC(C)=O)C[C@]43O)C2)[C@@H]1O						0.411 µM		0.052 µM	0.0589 µM	0.435 µM	0.972 µM	0.189 µM	0.113 µM	> 50 µM				0.067 µM	0.124 µM	0.161 µM
CC(=O)OCC1OC(Nc2ncc(-c3ccc(C)cc3)s2)C(OC(C)=O)C(OC(C)=O)C1OC(C)=O (stereo not given)	> 94.1 µM	> 100 µM		> 31.6 µM		91.4 µM	> 100 µM													
O=C1NC(=O)C(CCO)(c2ccccc2)C(=O)N1		> 100 µM	> 100 µM	> 100 µM	> 100 µM	> 100 µM	> 100 µM													
O=C(CC(c1ccccc1)N1CCCCC1)c1ccccc1 (stereo not given)						37.4 µM		27.3 µM	32.3 µM	37.6 µM	34.6 µM	42.3 µM	29.4 µM	6.15 µM				25.9 µM	70.5 µM	34.8 µM
O=c1c(-c2ccccc2)c(SCCCN2CCN(c3cccc(Cl)c3)CC2)n(-c2ccccc2)c(=S)n1-c1ccccc1						> 100 µM		> 100 µM	> 100 µM		> 100 µM		> 100 µM	> 100 µM					> 100 µM	> 100 µM
